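Method: 48-hour compound exposure of cells in 96-well plates, five concentrations, linear interpolation of endpoints. GI50 = concentration required for 50% inhibition of growth. TGI: total growth inhibition.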
What was measured:
Experiment in all cases: growth of human tumour cells (NCI), 48 h
[1] = tested on: UO-31 renal
[2] = tested on: SR leukemia
[3] = tested on: SF-539 CNS
[4] = tested on: UACC-62 melanoma
[5] = tested on: HOP-62 NSCLC
[6] = tested on: SK-MEL-2 melanoma
[7] = tested on: NCI-H23 lung
[8] = tested on: A549 NSCLC
[9] = tested on: HCT-15 colon
[10] = tested on: NCI-H522 lung

C=C(C)[C@@H]1CC[C@]2(C)CC[C@]3(C)[C@H](CC[C@@H]4[C@@]5(C)CC[C@H](OC(=O)c6ccccc6)C(C)(C)[C@@H]5CC[C@]43C)[C@@H]12
TGI [1]: > 100 µM | TGI [2]: > 100 µM | TGI [3]: > 100 µM | TGI [4]: > 100 µM | TGI [5]: > 100 µM | TGI [6]: > 100 µM | TGI [7]: > 100 µM | TGI [8]: > 100 µM | TGI [9]: > 100 µM | TGI [10]: > 100 µM

CC1SC(c2ccccc2)N(Nc2c3ccccc3nc3ccccc23)C1=O (centres undefined)
TGI [1]: 82.3 µM | TGI [2]: > 100 µM | TGI [3]: > 100 µM | TGI [4]: > 100 µM | TGI [5]: > 100 µM | TGI [6]: > 100 µM | TGI [7]: > 100 µM | TGI [8]: > 100 µM | TGI [9]: > 100 µM | TGI [10]: > 100 µM

COc1ccc(-c2cc(-c3ccccc3)n(C3OCC(OC(C)=O)C(OC(C)=O)C3OC(C)=O)c(=S)c2C#N)cc1 (centres undefined)
TGI [1]: > 100 µM | TGI [2]: > 100 µM | TGI [3]: > 100 µM | TGI [4]: > 100 µM | TGI [5]: > 100 µM | TGI [6]: > 100 µM | TGI [7]: > 100 µM | TGI [8]: > 100 µM | TGI [9]: > 100 µM | TGI [10]: > 100 µM

COc1ccc(NS(=O)c2ccc(-c3ccccc3)cc2)cc1 (centres undefined)
TGI [1]: > 100 µM | TGI [2]: > 100 µM | TGI [3]: > 100 µM | TGI [5]: > 100 µM | TGI [7]: > 100 µM | TGI [8]: > 100 µM | TGI [9]: > 100 µM | TGI [10]: > 100 µM

CN1CCN(c2ccc(-c3ccc4ncc(C#N)c(Nc5ccc(F)c(Cl)c5)c4c3)cc2)CC1
GI50 [1]: 0.895 µM | TGI [1]: 6.13 µM | GI50 [2]: 2.01 µM | TGI [2]: 6.82 µM | GI50 [3]: 1.86 µM | TGI [3]: 4.07 µM | GI50 [4]: 1.87 µM | TGI [4]: 3.75 µM | GI50 [5]: 2.22 µM | TGI [5]: 7.55 µM | GI50 [6]: 2.3 µM | TGI [6]: 6.72 µM | GI50 [7]: 10.1 µM | TGI [7]: 41.5 µM | GI50 [8]: 2.63 µM | TGI [8]: 26.6 µM | GI50 [9]: 1.05 µM | TGI [9]: 3.62 µM | GI50 [10]: 1.15 µM | TGI [10]: 4.02 µM

O=C(N/C(=C\c1ccccc1[N+](=O)[O-])c1nc2ccccc2[nH]1)c1ccccc1
TGI [1]: > 100 µM | TGI [2]: > 100 µM | TGI [4]: > 100 µM | TGI [6]: > 100 µM | TGI [7]: > 100 µM | TGI [9]: > 100 µM | TGI [10]: > 100 µM

Nc1ccc2c(c1)C1=NNC(=O)CC1C2 (centres undefined)
TGI [1]: > 100 µM | TGI [3]: > 100 µM | TGI [4]: > 100 µM | TGI [5]: > 100 µM | TGI [6]: > 100 µM | TGI [7]: > 100 µM | TGI [8]: > 100 µM | TGI [9]: > 100 µM | TGI [10]: > 100 µM

— PubChem BioAssay (NCI)
